Results from patent publication US6331642A, “Vitamin D3 analogs” (Hoffmann-La Roche Inc., priority 2000, dated 2001).

Legend:
seminal vesicles = assay: Antiandrogenic activity in castrated testosterone stimulated hamsters, seminal vesicles; type: in vivo, male Syrian hamsters; details: testosterone 20 μg s.c. daily, 14 days; vehicle 36 ± 3; mg ± SEM
Method: (§1) 1,25(OH)2 -16-ene-5,6-trans D3 was evaluated for antiandrogenic activity in castrated, testosterone stimulated male Syrian hamsters.
(§2) […] Both compounds were administered in a vehicle of 0.2 ml sesame oil each. Necropsy was performed on day 15. The prostate and seminal vesicles were removed, blotted and weighed. Data were analyzed for statistical significance using the Student's t-test and are expressed as percent inhibition of stimulated response.

ventral prostate = assay: Antiandrogenic activity in castrated testosterone stimulated hamsters, ventral prostate; type: in vivo, male Syrian hamsters; details: testosterone 20 μg s.c. daily, 14 days; vehicle 12 ± 1
Method: as §1, §2

Compound: CCC(=O)O[C@H]1CC[C@H]2[C@@H]3CCC4=CC(=O)CC[C@]4(C)[C@H]3CC[C@]12C [Testosterone, testosterone propionate, reference compound]
- Seminal vesicles weight (seminal vesicles): 105 ± 6 mg
- Ventral prostate weight (ventral prostate): 43 ± 5 mg
